Literature values as cited in patent US20110086355A1, “BRCA1 mRNA EXPRESSION LEVELS PREDICT SURVIVAL IN BREAST CANCER PATIENTS TREATED WITH NEOADJUVANT CHEMOTHERAPY” (PANGAEA BIOTECH, S.A., priority 2008, published 2011).

How the values were obtained:
[1] = system: HCC1937 breast cancer cell line; details: wild-type BRCA1 reconstituted vs BRCA1-negative HCC1937
[2] = system: SKOV-3 human ovarian cancer cell line
[3] = system: breast cancer cell line; details: BRCA1 mRNA determined by RT-QPCR
[4] = system: Mouse models carrying conditional disruption of BRCA1

Row | Structure (SMILES) | change of sensitivity after decreased BRCA1 mRNA expression [3] | sensitivity of BRCA1-disrupted mouse models [4] | other results
1 | N.N.[Cl][Pt][Cl] [cisplatin] | greater sensitivity | – | increase in resistance [1]: 20 fold; resistance after upregulation of BRCA1 expression [2]: increased cisplatin resistance
2 | CC[C@]1(O)C[C@H]2CN(CCc3c([nH]c4ccccc34)[C@@](C(=O)OC)(c3cc4c(cc3OC)N(C=O)[C@H]3[C@@](O)(C(=O)OC)[C@H](OC(C)=O)[C@]5(CC)C=CCN6CC[C@]43[C@@H]65)C2)C1 [vincristine] | greater resistance | – | –
3 | COc1cccc2c1C(=O)c1c(O)c3c(c(O)c1C2=O)C[C@@](O)(C(=O)CO)C[C@@H]3O[C@H]1C[C@H](N)[C@H](O)[C@H](C)O1 [doxorubicin] | – | highly sensitive | –
4 | CC/C(=C(\c1ccccc1)c1ccc(OCCN(C)C)cc1)c1ccccc1 [tamoxifen] | – | resistant | –
5 | CC(=O)O[C@H]1C(=O)[C@@]2(C)[C@H]([C@H](OC(=O)c3ccccc3)[C@]3(O)C[C@H](OC(=O)[C@H](O)[C@@H](NC(=O)c4ccccc4)c4ccccc4)C(C)=C1C3(C)C)[C@]1(OC(C)=O)CO[C@@H]1C[C@@H]2O [paclitaxel] | greater resistance | – | –
6 | COc1cc([C@@H]2c3cc4c(cc3[C@@H](O[C@@H]3O[C@@H]5CO[C@@H](C)O[C@H]5[C@H](O)[C@H]3O)[C@H]3COC(=O)[C@H]23)OCO4)cc(OC)c1O [etoposide] | greater sensitivity | – | –
